Source: article PMC3508689 (Biochemistry, 2011)

Molecular target: T1, human PPM1D catalytic domain (residues 1–420) (Homo sapiens, UniProt O15297)
T1 sequence (O15297 1-420): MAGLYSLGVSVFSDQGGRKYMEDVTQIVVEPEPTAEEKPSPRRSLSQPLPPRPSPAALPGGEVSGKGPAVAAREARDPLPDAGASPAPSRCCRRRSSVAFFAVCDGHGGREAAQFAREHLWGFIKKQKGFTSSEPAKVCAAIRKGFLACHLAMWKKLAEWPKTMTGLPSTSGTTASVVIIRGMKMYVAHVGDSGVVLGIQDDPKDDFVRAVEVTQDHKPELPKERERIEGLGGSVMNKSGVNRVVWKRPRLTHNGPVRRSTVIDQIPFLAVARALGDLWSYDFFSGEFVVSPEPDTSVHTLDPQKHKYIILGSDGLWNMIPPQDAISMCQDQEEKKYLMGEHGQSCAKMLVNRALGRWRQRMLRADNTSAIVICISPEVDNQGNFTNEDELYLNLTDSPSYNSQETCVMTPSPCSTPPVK
Assay type: biochemical
Settings: cyclic peptide 25 μM, ATM substrate peptide 30 μM

“cyclo(F-F2Pab-I-pY-DDC)-amide [peptide 44]” was tested, and the “inhibitory activity against PPM1D (in words)” value was “did not show inhibitory activity”.
In the case of “cyclo[(D-Asp)-(D-Asp)-(D-pY)-(D-I)-(D-pS)-(D-F)-C]-amide [peptide 47]”, the “inhibitory activity against PPM1D (in words)” value is reported as “no significant inhibitory activity”.
